Assay results as given in patent US10550095B2, “Cancerous cell growth inhibiting compounds” (WISYS TECHNOLOGY FOUNDATION, INC., priority 2016, dated 2020).
Values joined by “and” are separate entries in the source; they are usually repeats but may differ in a detail not shown here. Identical values can stand only once. “Also recorded” adds a separate entry of the source.

What was measured:
Pax3 = assay: RT-qPCR of Pax3 in melanoma cells; assay type: cell-based, mouse
Description: (§1) To understand how A11 inhibits melanoma proliferation, we examined the MITF expression level in A11-treated B16-F10 cells by western blot and RT-qPCR.
(§2) The results of several qPCR experiments using melanoma cells were compiled in FIG. 20. Pax3 and sox10 are genes determine the melanocyte precursors while mit-f is the specific transcription factor that initiates melanocyte differentiation. Dct and tyr genes are expressed in differentiated melanocytes. […] The decrease in magnitude is not significant likely due to the very heterogeneous cell types in melanoma.

tyrosinase [1] = assay: Effect on tyrosinase expression (FIG. 8)
Description: FIG. 8 is a graph of the effects of various pigment reducing compositions on tyrosinase expression;
(§3) The intracellular signaling pathway that involves Raf and MEK is known to be the major pathway to regulate cell proliferation. Many current melanoma drugs such as cobimetinib works by inhibiting Raf or MEK. While they are effective in inhibiting melanoma growth, they exert different degrees of side effect on normal cells by inhibiting the Raf-MEK pathway. […] Also, with regard to FIG. 13, the compound SK-03-92 is shown to inhibit melanoma cell growth by approximately 10% at 10 μM and at 100% at 40 μM.

MITF [2] = assay: Western blot for MITF protein level in B16-F10 cells; assay type: cell-based, mouse; conditions: western blot vs DMSO control (FIG. 21)
Description: as §1

[3] = system: melanocytes in zebrafish embryos; assay: Mitotic index of melanocytes in zebrafish embryos; assay type: in vivo; conditions: zebrafish embryo (FIG. 17)
B16-F10 melanoma cells [4] = assay: cells; assay type: cell-based
zebrafish embryos [5] = assay: Inhibition of melanin synthesis in zebrafish embryos, treated 24-76 hpf (Protocol 1); assay type: in vivo; conditions: zebrafish embryos treated 24-76 hpf
Experimental: (§4) The testing protocols for these compounds are as follows: • a. […] The embryos were monitored and imaged throughout their development to track the development of melanin pigment relative to a control group to which water was administered (Protocol 1). • b. […] The embryos were again monitored and imaged throughout their development relative to a control group to which water was administered (Protocol 2). • c. Additionally, to test the ability of the pigment to recover after being treated with our drugs, all embryos were treated at 24 hpf with the chemicals until the 48 hpf or 64 hpf time period, then washed with water to remove the treatment. The embryos were again monitored and imaged throughout their development relative to a control group to which water was administered (Protocol 3).
(§5) The black pigment (or melanin) is very easy to observe in zebrafish. In brief, adult zebrafish are taken to breed embryos. Morphologically normal embryos of 24 hours post fertilization (hpf) stage were selected for incubation in the drugs from 24 to 76 hours. During the incubation, the embryos are monitored and imaged (see FIGS. 1 and 3) to track the development of melanin. […] To broaden the comparison with other skin-whitening products, this project can also test at least three other compounds, Kojic acid, Gallic acid and Haginin. […] In the meantime, the whole organism context also allows us to examine the toxicological profile, if any, of these compounds.

melanoma cells = assay: Mitotic index of melanoma cells (anti-phospho-histone H3 antibody); assay type: cell-based, mouse; conditions: anti-phospho-histone H3 (FIG. 16)
MAPK = assay: Western blot for phosphorylated MAPK in melanoma cells; assay type: cell-based, mouse; conditions: melanoma cells (FIG. 19A)
Description: We wanted to further understand the molecular mechanism of A11 and its derivatives by examining the activities of MAPK, Akt, and PRPP pathways which regulate cell proliferation and cell death.
MAPK is involved in the major cell proliferation signaling pathway. In many cancer cells, MAPK is activated at high level by phosphorylation. Using the anti-phosphorylated-MAPK (p-MAPK) on western blot, it is very easy to understand the proliferation ability in cells. […] While the results are against our hypothesis and current understanding, it raises a very interesting mechanism of A11 which requires further investigation. […] The current understanding is that activated MAPK and Akt both lead to cell proliferation.

zebrafish embryos [6] = assay: Pigment recovery after compound withdrawal (Protocol 3); assay type: in vivo; conditions: treated 24-48 hpf or 24-64 hpf, then washed, by 72 hpf
Experimental: (§6) The testing protocols for these compounds are as follows: • a. […] The embryos were monitored and imaged throughout their development to track the development of melanin pigment relative to a control group to which water was administered (Protocol 1). • b. To test the effects of the drugs on existing melanin and/or melanocytes, the embryos were treated with the chemicals at 48 hpf, after pigment had developed. The embryos were again monitored and imaged throughout their development relative to a control group to which water was administered (Protocol 2). • c. Additionally, to test the ability of the pigment to recover after being treated with our drugs, all embryos were treated at 24 hpf with the chemicals until the 48 hpf or 64 hpf time period, then washed with water to remove the treatment. The embryos were again monitored and imaged throughout their development relative to a control group to which water was administered (Protocol 3).
It has been reported that melanin usually reappears after the withdrawal of skin whitening products. […] The pigmentation was monitored closely for 48-72 hours. Similarly, this experiment was repeated at least three times to gain a reproducible result.

MITF [7] = assay: RT-qPCR of MITF (mit-f) in melanoma cells; assay type: cell-based, mouse
Description: as §1, §2

zebrafish embryos [8] = assay: Effect on existing melanin and/or melanocytes, embryos treated at 48 hpf (Protocol 2); assay type: in vivo
Experimental: as §6
To test the effects of the drugs on existing melanin and/or melanocytes, the embryos were treated with the chemicals A11, MEK-I and PTU at 48 hpf, after pigment had developed. The embryos were again monitored and imaged throughout their development according to Protocol 2.

[9] = system: DCT (dopachrome tautomerase); assay: RT-qPCR of DCT in melanoma cells; assay type: cell-based, mouse
Description: as §1, §2

MEK = MEK activity (FIG. 12)
Description: FIG. 12 are photo illustrations of MEK activity with exemplary embodiments of the human drug treatments of the present invention; and
as §3

Akt = assay: Western blot for phosphorylated Akt in melanoma cells; assay type: cell-based, mouse; conditions: western blot (FIG. 19B)
tyrosinase [10] = assay: RT-qPCR of tyrosinase in melanoma cells; assay type: cell-based, mouse
Description: as §1, §2

[11] = system: dct-expressing cells (differentiated melanocytes); assay: In situ hybridization for the dct gene in zebrafish embryos; assay type: in vivo; conditions: zebrafish embryos (FIG. 22)
Description: To further understand the mechanism of A11, we examined the development of melanocytes by in situ hybridization for the dct (dopachrome tautomerase) gene which is expressed in differentiated melanocytes.

[12] = system: primary human melanocytes; assay: Growth of normal melanocytes; assay type: cell-based
Experimental: These cells proliferate slowly making it difficult to gather enough cells for experiments with all the A11 analogs. […] In the second experiment, A7 and a few other compounds were evaluated. […] At 10 μM, FSK-03-92 caused near 80% lethality (comparing with the 20% kill by 10 μM FSK-03-92 on melanoma cells in FIG. 14).

zebrafish embryos [13] = assay: Skin Lightening Efficacy of All Analogs on Zebrafish Embryos (Table 1); assay type: in vivo; conditions: concentration not given
Experimental: as §4, §5

[14] = system: transgenic melanoma zebrafish embryos; assay: Melanoma formation and recovery in transgenic melanoma zebrafish embryos; assay type: in vivo
Experimental: as §3

B16-F10 melanoma cells [15] = assay: Melanin in melanoma cells; assay type: cell-based, mouse; conditions: for Melanin: melanoma cells
Description: (MEK-I is a known MEK inhibitor as a comparison purchased from Sigma): […]

[16] = system: melanocytes in zebrafish embryos; assay: TUNEL assay, melanocyte apoptosis in normal and transgenic melanoma-forming zebrafish embryos; assay type: in vivo; conditions: normal and transgenic melanoma-forming embryos (FIGS. 18A-18B)

With `COc1cc(O)cc(/C=C/Oc2ccccc2C)c1` [Analog A11, 2-Methylphenyl-E-(3-hydroxy-5-methoxy)-styryl Ether] the “Pax3 expression (in words)” value (Pax3) was “reduces Pax3 expression”, the “tyrosinase formation (in words)” value (tyrosinase [1]) was “not to inhibit tyrosinase formation” and the “MITF protein level (in words)” value (MITF [2]) was “distinguishably lower”. For the same compound, the “mitosis / mitotic index of melanocytes (in words)” value [3] was “reduces mitosis”, the “Average Melanoma growth (from the previous chart)” value (shortened to “Average Melanoma growth”) (B16-F10 melanoma cells [4]; 2 μM) was 86% and the “Average Melanoma growth” value (B16-F10 melanoma cells [4]; 10 μM) was 88%. For the same compound, the “Average Melanoma growth” value (B16-F10 melanoma cells [4]; 20 μM) was 81%, the “Average Melanoma growth” value (B16-F10 melanoma cells [4]; 40 μM) was 50% and the “cell proliferation compared to the control” value (B16-F10 melanoma cells [4]; 40 μM (FIG. 14)) was 50%. For the same compound, the EC50 (B16-F10 melanoma cells [4]; Mus musculus, B16-F10, melanoma cells (FIG. 14), read-out: EC50 in inhibiting melanoma growth) was about 40 µM, the “melanoma cell death (in words)” value (B16-F10 melanoma cells [4]; any of the tested concentrations) was “no cell death was observed” and the “inhibition of melanoma cell growth / cell number (in words)” value (B16-F10 melanoma cells [4]; melanoma cells) was “decrease of melanin as well as the cell number”. For the same compound, the Growth (B16-F10 melanoma cells [4]; melanoma cells, 2 μM) was 86%, the Growth (B16-F10 melanoma cells [4]; melanoma cells, 10 μM) was 88% and 92% and 101% and 69% and the Growth (B16-F10 melanoma cells [4]; melanoma cells, 20 μM) was 81% and 80%. For the same compound, the “pigmentation inhibition (in words)” value (zebrafish embryos [5]) was “nearly complete pigmentation loss; also recorded: inhibits pigmentation formation”, the Pigmentation (zebrafish embryos [5]; 10 μM) was under 5% and the “mitotic index of melanoma cells (in words)” value (melanoma cells) was “significantly lower mitotic index”. The “amount of p-MAPK / MAPK activity (in words)” value (MAPK) was “significantly increase the MAPK activity; also recorded: increases the amount of p-MAPK”, the “pigmentation recovered after wash-off” value (zebrafish embryos [6]) was 50% and the “pigmentation recovered after wash-off” value (zebrafish embryos [6]; listed as A-11) was “approximately 50%”. The “MITF (mit-f) mRNA expression (in words)” value (MITF [7]) was “lower amount of MITF mRNA; also recorded: expressed at high level; also recorded: decreases the expression of mit-f gene”, the existing pigment remaining (zebrafish embryos [8]) was 20% and the “DCT expression (in words)” value [9] was “decreased”. The “MEK activity (in words)” value (MEK) was “increasing MEK activity”, the “phosphorylated Akt (in words)” value (Akt) was “slight increase of phosphorylated Akt” and the “tyrosinase expression (in words)” value (tyrosinase [10]) was “decreased”. The “number of dct-expressing cells (in words)” value [11] was “significantly lower than in the control”, the “toxicity to normal melanocytes (in words)” value [12] was “does not seem to cause high toxicity” and the “inhibition of growth of normal melanocytes (in words)” value ([12]; 10 μM) was “did not show any inhibition”. The Pigmentation (zebrafish embryos [13]) was 10%, the “formation and recovery of melanoma (in words)” value [14] was “inhibited the formation and recovery of melanoma; also recorded: inhibit both the formation of melanoma and the recovery of melanoma” and the Melanin (B16-F10 melanoma cells [15]; 2 μM) was 99%. For the same compound, the Melanin (B16-F10 melanoma cells [15]; 10 μM) was 104% and 84% and 97% and 95% and 100%, the Melanin (B16-F10 melanoma cells [15]; 20 μM) was 101% and 92% and the Melanin (B16-F10 melanoma cells [15]; 40 μM) was 84% and 68% and 56%. The “melanin in B16-F10 cells (in words)” value (B16-F10 melanoma cells [15]; mouse cell line B16-F10) was “decrease of melanin” and the “melanocyte apoptosis / cell death (in words)” value [16] was “does not induce apoptosis; also recorded: no significant difference”.
